pIC50: −log10 of the molar value. Structures can show the parent of a compound that is named as a salt.
System: YAP-TEAD interaction
Test: SK-HEP-1 reporter assay (8xTEAD responsive elements driving NanoLuc luciferase)
Assay type: cell-based
Experimental: To identify inhibitors of YAP-TEAD interaction, 8×TEAD responsive elements driving the NanoLuc® luciferase gene were stably integrated into SK-HEP-1 cells (ECACC #: 91091816).
For the assay, cells were treated in duplicates with the test compounds in a 10-point dose, with the top concentration starting at 30 μM (final concentration in assay). After a 24 hour incubation at 37° C., 95% rH, and 5% CO2, a luciferase substrate/lysis reagent mix (NanoGlo™, Promega) was added to the cells, allowing the quantification of cellular luciferase activity.
Cell Media: The cells were cultured in the following media: MEM, +10% FBS, +1× GlutaMAX, +1 mM Sodium-Pyruvate, +100 μM Non-essential amino acids, +0.1 mg/ml Hygromycin. The media used for the assay was: MEM (w/o Phenol Red), +10% FBS, +1× GlutaMAX, +1 mM Sodium-Pyruvate, +100 μM Non-essential amino acids, +0.5% Pen/Strep
Reagents: The reagents used are listed below:
Cell culture: The cells were examined using an inverted microscope to check for health and cell density. To dissociate adherent cells, the monolayer of cells was washed once with pre-warmed PBS. After removing the PBS, 3 ml pre-warmed Accutase® was added to a F75 flask, dispersed evenly and the flask was allowed to sit in incubator for ˜4-5 minutes.
When a single cell suspension was obtained, 7 ml of prewarmed growth media was added and resuspended with the cells. The cell suspension was transferred to a sterile 15 ml conical centrifuge tube, and spun for 5 min at 300×g, RT. The supernatant was discarded and the pellet was resuspended in 10 ml of pre-warmed growth media.
The total cell count was determined, and 20 μl of the desired cell number was added to each well of a 384 well plate using a Multidrop Combi. The plates were then incubated for 24 hours at 37° C., 95% rH, and 5% C02.
Compound treatment: 24 hours after seeding, the cells were treated with compounds.
A 1:333 dilution of compounds, diluted in DMSO, was made to get a final concentration of 0.3% DMSO per well. To transfer the compounds to the assay plate, […] was shot from Labcyte low dead volume plates to the cell plates containing 20 μl media/well with the ECHO 555 liquid handling system.
After treatment, the cells were fed with 20 μl fresh pre-warmed assay media using a Multidrop combi.
The assay plates were then incubated for another 24 h at 37° C., 95% rH, and 5% CO2.
Luciferase readout: 24 h after treatment, the plates were taken out of the incubator and were allowed to equilibrate to RT. 30 μl of NanoGlo® reagent was added to the plates in the dark. Plates were shaken for 20 min on a Teleshake (˜1500 rpm) in the dark. The luminescence was then measured using an EnVision microplate reader. The IC50 values were generated using Genedata Screener®.

[1] = SK-HEP-1 reporter assay, class symbols
[2] = Homo sapiens, SK-HEP1, SK-HEP-1 reporter assay, class symbols
[3] = Homo sapiens, SK-HEP1, SK-HEP-1 reporter assay, n.d. = value not detectable below threshold given in parentheses, ND = not determinable within the entire range

pIC50 [2]	SMILES	also measured
–	Cc1snc2c1c1cc(C(=O)N=S(C)(=O)CCCO)ccc1n2-c1ccc(C(F)(F)F)cc1 (single isomer, unassigned) [Example C103]	pIC50 [1]: 5.00 to 7.00
–	Cn1cnc2c1c1cc(C3CC(Oc4cncnc4)=NO3)ccc1n2-c1ccc(C(F)(F)F)cc1 (stereo not drawn) [Example C215, 5-[(5-{1-methyl-4-[4-(trifluoromethyl)phenyl]-1H,4H-imidazo[4,5-b]indol-7-yl}-4,5-dihydro-1,2-oxazol-3-yl)oxy]pyrimidine]	pIC50 [1]: 5.00 to 7.00
5.00 to 7.00	O=C(O)c1ccc2c(c1)c1cnn(C(F)(F)F)c1n2-c1ccc(C(F)(F)F)cc1 [Example C34, 1-(trifluoromethyl)-8-[4-(trifluoromethyl)phenyl]-1H,8H-pyrazolo[3,4-b]indole-5-carboxylic acid]	–
–	Cn1cc2c(n1)c1cc(S(=O)(=O)N3C[C@@H](O)C[C@@H]3c3ccccc3)ccc1n2-c1ccc(C(F)(F)F)cc1 (single isomer, unassigned) [Example C45]	pIC50 [3]: < 6.00
7.00 to 8.00	Cn1nc2c3cc(C(=O)N=[S@@](=O)(CCO)Cc4cccnc4)ccc3n(-c3ccc(C(F)(F)F)cc3)c2n1 (single isomer, unassigned) [Example C238]	–
5.00 to 7.00	Cn1cc2c3cc(NC(=O)CNC4CCNC4)ccc3n(-c3ccc(C(F)(F)F)cc3)c2n1 (stereo not drawn) [Example C224, N-{2-methyl-8-[4-(trifluoromethyl)phenyl]-2H,8H-pyrazolo[3,4-b]indol-5-yl}-2-[{pyrrolidin-3-yl)amino]acetamide]	–
7.00 to 8.00	Cc1snc2c1c1cc(C(=O)NCc3cnccn3)ccc1n2-c1ccc(C(F)(F)F)cc1 [Example C78, 3-methyl-N-[(pyrazin-2-yl)methyl]-8-[4-(trifluoromethyl)phenyl]-8H-[1,2]thiazolo[3,4-b]indole-5-carboxamide]	–
< 5.00	Cn1cc2c3cc(C(=O)NC4CCNCC4(F)F)ccc3n(-c3ccc(C(F)(F)F)cc3)c2n1 (stereo not drawn) [Example C217, N-(3,3-difluoropiperidin-4-yl)-2-methyl-8-[4-(trifluoromethyl)phenyl]-2H,8H-pyrazolo[3,4-b]indole-5-carboxamide]	–
–	Cn1cc2c3cc(C(=O)N=S4(=O)CCC5(CC4)CC(N)CCO5)ccc3n(-c3ccc(C(F)(F)F)cc3)c2n1 (stereo not drawn) [Example C143, N-{4-amino-9-oxo-1-oxa-9lambda6-thiaspiro[5.5]undecan-9-ylidene}-2-methyl-8-[4-(trifluoromethyl)phenyl]-2H,8H-pyrazolo[3,4-b]indole-5-carboxamide]	pIC50 [3]: < 5.49
5.00 to 7.00	Cn1cc2c3cc(C(=O)NC(CO)c4nncn4C)ccc3n(-c3ccc(C(F)(F)F)cc3)c2n1 (stereo not drawn) [Example C267, N-[2-hydroxy-1-(4-methyl-4H-1,2,4-triazol-3-yl)ethyl]-2-methyl-8-[4-(trifluoromethyl)phenyl]-2H,8H-pyrazolo[3,4-b]indole-5-carboxamide]	–
5.00 to 7.00	Cn1cc2c3cc(NC(=O)COC4CNC4)ccc3n(-c3ccc(C(F)(F)F)cc3)c2n1 [Example C243, 2-(azetidin-3-yloxy)-N-{2-methyl-8-[4-(trifluoromethyl)phenyl]-2H,8H-pyrazolo[3,4-b]indol-5-yl}acetamide formate]	–
–	C[C@@H](CO)NS(=O)(=O)c1ccc2c(c1)c1nnn(C)c1n2-c1ccc(C(F)(F)F)cc1 [Example C1, N-[(2S)-1-hydroxypropan-2-yl]-3-methyl-4-[4-(trifluoromethyl)phenyl]-3H,4H-[1,2,3]triazolo[4,5-b]indole-7-sulfonamide]	pIC50 [3]: < 4.52
5.00 to 7.00	C[C@H](CO)NC(=O)c1ccc2c(c1)c1cn(C)nc1n2C1CC2(C1)CC(F)(F)C2 [Example C207, 8-{6,6-difluorospiro[3.3]heptan-2-yl}-N-[(2R)-1-hydroxypropan-2-yl]-2-methyl-2H,8H-pyrazolo[3,4-b]indole-5-carboxamide]	–
5.00 to 7.00	COCCS(=O)(CCN)=NC(=O)c1ccc2c(c1)c1cn(C)nc1n2-c1ccc(C(F)(F)F)cc1 (stereo not drawn) [Example C146, N-[(2-aminoethyl)(2-methoxyethyl)oxo-λ^6-sulfanylidene]-2-methyl-8-[4-(trifluoromethyl)phenyl]-2H,8H-pyrazolo[3,4-b]indole-5-carboxamide]	–
7.00 to 8.00	Cn1cc2c3cc(C(=O)N[C@@H](CO)c4ccccn4)cnc3n(-c3ccc(C(F)(F)F)cc3)c2n1 [Example C228, N-[(1R)-2-hydroxy-1-(pyridin-2-yl)ethyl]-4-methyl-7-[4-(trifluoromethyl)phenyl]-4,5,7,9-tetraazatricyclo[6.4.0.0^2,6]dodeca-1(8),2,5,9,11-pentaene-11-carboxamide]	–
5.00 to 7.00	Cc1snc2c1c1cc(C(=O)N[C@H](CO)c3ccccn3)ccc1n2-c1ccc(C(F)(F)F)cc1 [Example C69, N-[(1S)-2-hydroxy-1-(pyridin-2-yl)ethyl]-3-methyl-8-[4-(trifluoromethyl)phenyl]-8H-[1,2]thiazolo[3,4-b]indole-5-carboxamide]	–
< 5.00	Cn1cc2c3cc(C4CC(n5ccnn5)=NO4)ccc3n(-c3ccc(C(F)(F)F)cc3)c2n1 (stereo not drawn) [Example C37, 1-(5-{2-methyl-8-[4-(trifluoromethyl)phenyl]-2H,8H-pyrazolo[3,4-b]indol-5-yl}-4,5-dihydro-1,2-oxazol-3-yl)-1H-1,2,3-triazole]	–
5.00 to 7.00	CCCNS(=O)(=O)c1ccc2c(c1)c1cn(C)nc1n2-c1ccc(C(F)(F)F)cc1 [Example C71, 2-methyl-N-propyl-8-[4-(trifluoromethyl)phenyl]-2H,8H-pyrazolo[3,4-b]indole-5-sulfonamide]	–
5.00 to 7.00	Cn1cc2c3cc(C(=O)N=S4(=O)CCC(C)(N)CC4)ccc3n(-c3ccc(C(F)(F)F)cc3)c2n1 (stereo not drawn) [Example C139, N-(4-amino-4-methyl-1-oxo-1lambda6-thian-1-ylidene)-2-methyl-8-[4-(trifluoromethyl)phenyl]-2H,8H-pyrazolo[3,4-b]indole-5-carboxamide]	–
5.00 to 7.00	Cn1cc2c3cc(C(=O)NC4(CO)CCNCC4)ccc3n(-c3ccc(C(F)(F)F)cc3)c2n1 [Example C218, N-[4-(hydroxymethyl)piperidin-4-yl]-2-methyl-8-[4-(trifluoromethyl)phenyl]-2H,8H-pyrazolo[3,4-b]indole-5-carboxamide]	–
7.00 to 8.00	Cn1cc2c3cc(C(=O)OCCS(C)(=N)=O)ccc3n(-c3ccc(C(F)(F)F)cc3)c2n1 (stereo not drawn) [Example C29, 2-[imino(methyl)oxo-λ^6-sulfanyl]ethyl 2-methyl-8-[4-(trifluoromethyl)phenyl]-2H,8H-pyrazolo[3,4-b]indole-5-carboxylate]	–
7.00 to 8.00	Cn1cc2c3cc(C4CC(F)(F)C(=O)N4)ccc3n(-c3ccc(C(F)(F)F)cc3)c2n1 (stereo not drawn) [Example C275, 3,3-difluoro-5-{2-methyl-8-[4-(trifluoromethyl)phenyl]-2H,8H-pyrazolo[3,4-b]indol-5-yl}pyrrolidin-2-one]	–
5.00 to 7.00	Cn1cc2c3cc(C(=O)NC[C@H](O)C(F)(F)F)ccc3n(-c3ccc(C(F)(F)F)cc3)c2n1 [Example C133, 2-methyl-N-[(2S)-3,3,3-trifluoro-2-hydroxypropyl]-8-[4-(trifluoromethyl)phenyl]-2H,8H-pyrazolo[3,4-b]indole-5-carboxamide]	–
5.00 to 7.00	Cn1cnc2c1c1cc(C3CC(n4nccn4)=NO3)ccc1n2-c1ccc(C(F)(F)F)cc1 (stereo not drawn) [Example C212, 2-(5-{1-methyl-4-[4-(trifluoromethyl)phenyl]-1H,4H-imidazo[4,5-b]indol-7-yl}-4,5-dihydro-1,2-oxazol-3-yl)-2H-1,2,3-triazole]	–
5.00 to 7.00	C[C@@H](CCN)NC(=O)c1ccc2c(c1)c1cn(C)nc1n2-c1ccc(C(F)(F)F)cc1 [Example C26, N-[(2S)-4-aminobutan-2-yl]-2-methyl-8-[4-(trifluoromethyl)phenyl]-2H,8H-pyrazolo[3,4-b]indole-5-carboxamide]	–
–	Cn1cc2c3cc(NC(=O)Cc4ccncc4)ccc3n(-c3ccc(C(F)(F)F)cc3)c2n1 [Example C33, N-{2-methyl-8-[4-(trifluoromethyl)phenyl]-2H,8H-pyrazolo[3,4-b]indol-5-yl}-2-(pyridin-4-yl)acetamide]	pIC50 [3]: < 5.00

SMILES	pIC50 [2]	also measured
Cn1cc2c3cc(NC(=O)CCl)ccc3n(-c3ccc(C(F)(F)F)cc3)c2n1 [Example 23, 2-chloro-N-[2-methyl-8-[4-(trifluoromethyl)phenyl]pyrazolo[3,4-b]indol-5-yl]acetamide]	< 5.00	–
